Results reported in the CheMixHub viscosity set.

Experiment: xn = mol fraction of the nth substance listed

Nc1ccccc1 + Cc1cccc(C)c1
303 K, 101.33 kPa
Conditions | viscosity [mPa·s]
x1 = 0.1 | 0.815
x1 = 0.2 | 1.025
x1 = 0.3 | 1.316
x1 = 0.4 | 1.708
x1 = 0.5 | 2.076
x1 = 0.6 | 2.225
x1 = 0.7 | 2.432
x1 = 0.8 | 2.675
x1 = 0.9 | 2.875

CC(C)(C)O + Cc1ccccc1
viscosity [mPa·s]
Conditions | 298.15 K | 303.15 K | 308.15 K | 313.15 K | 318.15 K
101 kPa, x2 = 0.1121 | 2.432 | 1.991 | 1.63 | 1.282 | 1.05
101 kPa, x2 = 0.1785 | 1.717 | 1.462 | 1.245 | 1.027 | 0.8744
101 kPa, x2 = 0.3151 | 1.113 | 0.9909 | 0.8824 | 0.7677 | 0.6837
101 kPa, x2 = 0.3919 | 0.9507 | 0.8583 | 0.7749 | 0.6855 | 0.6188
101 kPa, x2 = 0.4958 | 0.7975 | 0.7306 | 0.6693 | 0.6025 | 0.552
101.33 kPa, x2 = 0.1003 | – | 1.981 | 1.622 | 1.328 | –
101.33 kPa, x2 = 0.1723 | – | 1.455 | 1.239 | 1.059 | –
101.33 kPa, x2 = 0.3109 | – | 0.986 | 0.878 | 0.781 | –
101.33 kPa, x2 = 0.3886 | – | 0.854 | 0.771 | 0.696 | –
101.33 kPa, x2 = 0.4942 | – | 0.727 | 0.666 | 0.611 | –
101.33 kPa, x2 = 0.6059 | – | 0.644 | 0.594 | 0.548 | –
101.33 kPa, x2 = 0.7118 | – | 0.588 | 0.547 | 0.51 | –
101.33 kPa, x2 = 0.8135 | – | 0.549 | 0.518 | 0.486 | –
101.33 kPa, x2 = 0.9107 | – | 0.521 | 0.49 | 0.46 | –
